Earlier results, collected in patent US11229617B2, “Topical anti-inflammatory compositions” (Achelios Therapeutics, Inc., priority 2016, dated 2022).

| SMILES | pKa |
| --- | --- |
| CCCCCC(=O)O [hexanoic (caproic) acid] | 4.88 |
| CC(C)(O)CC(=O)O [hydroxymethyl-butyric acid] | 4.55 |
